Results taken from US20260217767A1, “NOVEL A4B7 THIOETHER PEPTIDE DIMER ANTAGONISTS” (Protagonist Therapeutics, Inc., priority 2014, published 2026).
*1 amine or outer side, *2 acyl side, *3 side chain or, on linkers, in order; H or OH if unused. Where a SMILES comes first, the peptide text is derived from it. Bridges are numbered along the chain shown (N, C = ends). Roman numbers before positions name the chains, in order. [ ]: non-standard residue; d: D form. 1Nal = N[C@@H](Cc1cccc2ccccc12)C(=O)O; Diglycolyl = O=C(COCC(=O)[*:2])[*:1]; NMeR = CN[C@@H](CCCNC(=N)N)C(=O)O; X1 = O=C(c1ccccc1C[*:2])[*:1]; Pen = CC(C)(S)[C@H](N)C(=O)O

Columns and labels:
α4β1 = molecular target: T1, α4β1 (Homo sapiens, UniProt P05556+P13612); experiment: α4β1-VCAM Competition ELISA; assay type: binding; settings: thioether peptide dimers, Table 7; read-out: ELISA A4B1
T1 construct: purchased R&D Systems 5668-A4
Procedure, shortened: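 rh VCAM-1-Fc coated plates; α4β1 (final 60 nM) and peptide (final 100 μM) incubated 2 h at 37° C. in 50 mM Tris-HCl pH 7.6, 100 mM NaCl, 1 mM MnCl2 or MgCl2, 0.05% Tween-20. Bound integrin detected with anti-CD49d 9F10 and HRP anti-mouse IgG, TMB read at 450 nm.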

Jurkat E6.1 cells = Jurkat E6.1 cells (Homo sapiens, UniProt P05556+P13612); experiment: α4β1-VCAM Cell Adhesion Assay; assay type: cell-based; settings: thioether peptide dimers, Table 7; read-out: Cell Adhesion A4B1
Procedure, shortened: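 Jurkat E6.1 cells (200,000 per well, in DMEM with 0.1% BSA and 1 mM MnCl2) allowed to adhere to rh VCAM-1 Fc-coated wells with serially diluted peptide for 30-45 min at 37° C. After washing, bound cells quantified by MTT absorbance at 570 nm, cell-free background subtracted, for dose response.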

[1] = Simulated Intestinal Fluid (SIF) Stability Assay; assay type: in vitro ADME; settings: porcine pancreatin, 37° C., dimers, Table 7
Procedure, shortened: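 Percent peptide remaining over time was measured by LC-MS/MS as the peak-area ratio to internal standard, and a first-order decay fit gave half-life. Digests contained 22 μM peptide and 1% pancreatin in pH 6.5 FaSSIF buffer at 37° C. Aliquots were quenched in organic solvent with formic acid.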

T1 sequence (P13612 34-977 limits assumed): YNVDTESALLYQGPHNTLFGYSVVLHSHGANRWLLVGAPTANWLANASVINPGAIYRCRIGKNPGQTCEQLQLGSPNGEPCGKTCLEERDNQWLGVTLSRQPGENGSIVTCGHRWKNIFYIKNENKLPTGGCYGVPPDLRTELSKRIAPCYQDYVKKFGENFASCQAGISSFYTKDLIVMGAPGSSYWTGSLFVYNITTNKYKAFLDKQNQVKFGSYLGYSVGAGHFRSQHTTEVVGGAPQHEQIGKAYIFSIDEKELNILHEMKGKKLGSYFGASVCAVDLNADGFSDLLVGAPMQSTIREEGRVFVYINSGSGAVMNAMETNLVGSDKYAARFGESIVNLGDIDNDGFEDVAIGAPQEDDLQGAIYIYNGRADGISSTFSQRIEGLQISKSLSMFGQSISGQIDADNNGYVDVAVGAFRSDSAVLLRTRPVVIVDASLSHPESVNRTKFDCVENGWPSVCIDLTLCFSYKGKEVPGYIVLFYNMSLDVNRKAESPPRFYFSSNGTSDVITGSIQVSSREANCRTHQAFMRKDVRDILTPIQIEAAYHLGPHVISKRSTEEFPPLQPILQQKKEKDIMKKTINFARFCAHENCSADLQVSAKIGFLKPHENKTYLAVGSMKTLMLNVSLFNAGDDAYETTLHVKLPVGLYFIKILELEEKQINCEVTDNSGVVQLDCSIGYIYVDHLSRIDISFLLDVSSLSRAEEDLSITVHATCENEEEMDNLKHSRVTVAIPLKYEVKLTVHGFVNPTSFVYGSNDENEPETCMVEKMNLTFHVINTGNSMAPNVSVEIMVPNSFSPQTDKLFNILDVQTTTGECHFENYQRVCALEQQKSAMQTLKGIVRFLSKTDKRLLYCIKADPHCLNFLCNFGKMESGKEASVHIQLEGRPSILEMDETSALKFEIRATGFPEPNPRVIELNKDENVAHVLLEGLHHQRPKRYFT
T1 sequence (P05556 21-728 limits assumed): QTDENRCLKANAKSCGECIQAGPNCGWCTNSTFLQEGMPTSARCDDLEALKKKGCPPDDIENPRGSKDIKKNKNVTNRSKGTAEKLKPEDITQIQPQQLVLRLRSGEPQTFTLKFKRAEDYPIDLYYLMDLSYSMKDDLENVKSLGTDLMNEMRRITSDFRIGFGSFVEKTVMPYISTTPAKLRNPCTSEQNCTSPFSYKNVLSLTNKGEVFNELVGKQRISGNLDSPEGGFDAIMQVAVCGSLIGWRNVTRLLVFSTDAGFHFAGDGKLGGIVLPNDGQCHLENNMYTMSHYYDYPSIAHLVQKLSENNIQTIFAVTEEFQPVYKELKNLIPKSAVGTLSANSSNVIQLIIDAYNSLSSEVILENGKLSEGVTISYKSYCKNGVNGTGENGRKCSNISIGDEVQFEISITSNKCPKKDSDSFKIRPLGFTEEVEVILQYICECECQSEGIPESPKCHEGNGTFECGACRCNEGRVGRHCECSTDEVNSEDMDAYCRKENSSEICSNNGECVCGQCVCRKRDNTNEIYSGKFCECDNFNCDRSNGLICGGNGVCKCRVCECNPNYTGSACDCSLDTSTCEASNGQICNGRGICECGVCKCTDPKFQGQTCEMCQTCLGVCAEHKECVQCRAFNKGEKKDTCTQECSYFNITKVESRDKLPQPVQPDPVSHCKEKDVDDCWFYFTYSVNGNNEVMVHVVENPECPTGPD
Jurkat E6.1 cells, sequence (P13612 34-1032): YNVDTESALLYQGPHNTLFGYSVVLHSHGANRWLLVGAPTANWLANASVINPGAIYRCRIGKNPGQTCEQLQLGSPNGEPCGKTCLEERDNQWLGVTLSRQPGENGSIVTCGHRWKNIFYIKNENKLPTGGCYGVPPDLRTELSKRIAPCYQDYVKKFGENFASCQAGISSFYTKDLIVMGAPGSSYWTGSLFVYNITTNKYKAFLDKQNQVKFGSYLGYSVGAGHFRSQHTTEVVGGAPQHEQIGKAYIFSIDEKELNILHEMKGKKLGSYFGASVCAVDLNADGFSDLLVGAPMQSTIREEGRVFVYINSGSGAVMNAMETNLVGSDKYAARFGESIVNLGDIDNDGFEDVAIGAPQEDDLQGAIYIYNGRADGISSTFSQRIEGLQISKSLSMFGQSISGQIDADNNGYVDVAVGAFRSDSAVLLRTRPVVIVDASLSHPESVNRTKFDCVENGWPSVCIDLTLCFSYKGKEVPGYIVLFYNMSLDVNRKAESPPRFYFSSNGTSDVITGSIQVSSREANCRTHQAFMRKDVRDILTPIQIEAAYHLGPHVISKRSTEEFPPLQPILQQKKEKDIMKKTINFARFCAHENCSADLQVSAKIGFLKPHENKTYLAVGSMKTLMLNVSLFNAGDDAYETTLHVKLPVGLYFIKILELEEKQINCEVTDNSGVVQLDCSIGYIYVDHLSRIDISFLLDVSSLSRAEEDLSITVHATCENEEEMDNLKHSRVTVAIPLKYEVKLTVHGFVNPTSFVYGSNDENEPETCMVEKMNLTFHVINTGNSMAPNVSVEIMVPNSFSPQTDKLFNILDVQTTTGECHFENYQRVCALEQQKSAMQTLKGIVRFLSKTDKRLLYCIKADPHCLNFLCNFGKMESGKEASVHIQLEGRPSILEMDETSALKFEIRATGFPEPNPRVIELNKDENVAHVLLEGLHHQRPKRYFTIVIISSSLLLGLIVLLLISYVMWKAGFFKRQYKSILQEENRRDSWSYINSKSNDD
Jurkat E6.1 cells, sequence (P05556 21-798): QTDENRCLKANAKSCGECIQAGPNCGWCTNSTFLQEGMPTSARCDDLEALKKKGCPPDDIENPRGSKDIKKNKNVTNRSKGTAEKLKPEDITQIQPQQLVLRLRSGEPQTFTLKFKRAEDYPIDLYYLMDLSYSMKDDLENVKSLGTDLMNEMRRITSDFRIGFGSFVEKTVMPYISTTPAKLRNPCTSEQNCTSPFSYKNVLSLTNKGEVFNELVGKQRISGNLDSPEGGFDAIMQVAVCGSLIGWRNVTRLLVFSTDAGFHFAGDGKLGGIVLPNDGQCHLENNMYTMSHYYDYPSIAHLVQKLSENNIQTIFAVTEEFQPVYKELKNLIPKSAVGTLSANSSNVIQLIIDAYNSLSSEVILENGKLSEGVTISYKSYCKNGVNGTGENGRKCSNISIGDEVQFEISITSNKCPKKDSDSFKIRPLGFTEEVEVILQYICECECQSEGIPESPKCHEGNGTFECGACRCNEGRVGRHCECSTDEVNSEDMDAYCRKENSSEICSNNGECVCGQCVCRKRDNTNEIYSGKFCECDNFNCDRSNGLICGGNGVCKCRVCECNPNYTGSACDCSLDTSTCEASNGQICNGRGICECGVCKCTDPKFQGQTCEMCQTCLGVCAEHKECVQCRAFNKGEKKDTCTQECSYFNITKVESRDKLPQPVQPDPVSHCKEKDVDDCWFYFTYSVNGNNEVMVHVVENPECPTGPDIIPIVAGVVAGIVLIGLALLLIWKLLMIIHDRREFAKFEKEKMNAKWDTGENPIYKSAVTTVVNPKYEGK

half-life ([1]; simulated gi fluid) [h]	Compound	IC50 (α4β1) [nM]	IC50 (Jurkat E6.1 cells) [nM]	half-life ([1]; pig) [h]
< 0.333	CC(C)C[C@@H]1NC(=O)[C@H]([C@@H](C)O)NC(=O)[C@H](CC(=O)O)NC(=O)[C@H](CO)NC(=O)[C@H](CCCNC(=N)N)N(C)C(=O)c2ccccc2CSC(C)(C)[C@@H](C(=O)N[C@@H](Cc2cccc3ccccc23)C(=O)N[C@@H](CCC(=O)O)C(=O)N[C@H](CCCCNC(=O)COCC(=O)NCCCC[C@@H](NC(=O)[C@H](CCC(=O)O)NC(=O)[C@H](Cc2cccc3ccccc23)NC(=O)[C@H]2NC(=O)[C@H](CC(C)C)NC(=O)[C@H]([C@@H](C)O)NC(=O)[C@H](CC(=O)O)NC(=O)[C@H](CO)NC(=O)[C@H](CCCNC(=N)N)N(C)C(=O)c3ccccc3CSC2(C)C)C(N)=O)C(N)=O)NC1=O [compound 167] (I: [NMeR]SDTL[Pen][1Nal]E[dK]-NH2 / II: [NMeR]SDTL[Pen][1Nal]E[dK]-NH2; linker I:9-II:9 via Diglycolyl; linker I:N-I:6, II:N-II:6 via X1)	25 to 100	> 100000	
	CC(C)C[C@@H]1NC(=O)[C@H]([C@@H](C)O)NC(=O)[C@H](CC(=O)O)NC(=O)[C@H](CO)NC(=O)[C@H](CCCNC(=N)N)N(C)C(=O)c2ccccc2CSC(C)(C)[C@@H](C(=O)N[C@@H](Cc2ccccc2)C(=O)N[C@H](CCC(=O)O)C(=O)N[C@H](CCCCNC(=O)COCC(=O)NCCCC[C@@H](NC(=O)[C@@H](CCC(=O)O)NC(=O)[C@H](Cc2ccccc2)NC(=O)[C@H]2NC(=O)[C@H](CC(C)C)NC(=O)[C@H]([C@@H](C)O)NC(=O)[C@H](CC(=O)O)NC(=O)[C@H](CO)NC(=O)[C@H](CCCNC(=N)N)N(C)C(=O)c3ccccc3CSC2(C)C)C(=O)O)C(=O)O)NC1=O [compound 204] (I: [NMeR]SDTL[Pen]F[dE][dK]-OH / II: [NMeR]SDTL[Pen]F[dE][dK]-OH; linker I:9-II:9 via Diglycolyl; linker I:N-I:6, II:N-II:6 via X1)	100 to 1000	> 100000	> 3
